Assay results from patent US8993304B2, “Chloramphenicol resistance selection in Bacillus licheniformis” (Novozymes A/S, priority 2006, dated 2015).

Legend:
Type in all cases: cell-based, Bacillus licheniformis
control strain = test: Growth on reisolation onto LPBSG plates with chloramphenicol; conditions: LPBSG plates with 10 mikrogram/ml chloramphenicol
Source text: (§4) 2 erythromycin sensitive and chloramphenicol sensitive strains were kept as SJ8071 (from donor SJ8039) and SJ8072 (from donor SJ8041).

SJ8072 = test: as above; conditions: SJ8072 deletion strain; LPBSG plates with 10 mikrogram/ml chloramphenicol
Source text: as §4

ATCC14580 = test: Test of chloramphenicol resistance, growth in liquid TY+glucose culture; conditions: 30° C.
Procedure: (§1) Strains PP1897-3, SJ8071 (=PP1897-3 delta cat), ATCC14580, and SJ8344 (=ATCC14580 delta cat) were propagated in 10 ml TY (WO 94/14968, p16) supplemented with 0.5% glucose at 30° C. overnight, with shaking. 50 microliter aliquots were used to inoculate further 10 ml TY+glucose cultures, supplemented with chloramphenicol (cam) to concentrations: 1 microgram/ml, 2 microgram/ml, 3 microgram/ml, 6 microgram/ml, 9 microgram/ml, or 12 microtram/ml, and incubation with shaking continued at 30° C. Growth was scored by visual inspection of turbidity after approximately 7 hours (table 1), and again after overnight incubation (table 2).

[1] = tested on: SJ8071 (=PP1897-3 delta cat); test: as above; conditions: 30° C.
Procedure: as §1

[2] = tested on: SJ8344 (=ATCC14580 delta cat); test: as above; conditions: 30° C.
Procedure: as §1

PP1897-3 = test: as above; conditions: 30° C.
Procedure: as §1

[3] = tested on: cat-deleted recipient strains; test: Transconjugant selection on chloramphenicol plates; conditions: cat-deleted recipients (SJ8071, SJ8344); donor SJ8000; chloramphenicol 6 microgram/ml; 30° C. overnight
Procedure: (§2) B. licheniformis strains PP1897-3, the cat-deleted derivative SJ8071, strain ATCC14580, and the cat-deleted derivative SJ8344 were used as recipients in conjugations with donor strain SJ8000, essentially as described before.
(§3) For each donor/recipient combination, donor and recipient colonies were scraped off overnight plates and mixed in a small volume of liquid TY medium, and equal volumes from this mixture was plated on each of two LBPGS plates with D-alanine. Following 6 hours incubation at 30° C., one plate was replicaplated onto LBPGS with erythromycin (2 microgram/ml), and the other plate replica plated onto LPPGS with chloramphenicol (6 microgram/ml). These plates were incubated at 30° C. overnight, then left at room temperature (20-25° C.) for further 3 days.

[4] = tested on: recipient strains containing intact, chromosomal chloramphenicol resistance genes; test: Transconjugant selection on chloramphenicol plates; conditions: recipients with intact chromosomal cat (PP1897-3, ATCC14580); donor SJ8000; chloramphenicol 6 microgram/ml; 30° C. overnight
Procedure: as §2, §3

SJ8071 = test: Growth on reisolation onto LPBSG plates with chloramphenicol; conditions: SJ8071 deletion strain; LPBSG plates with 10 mikrogram/ml chloramphenicol
Source text: as §4

[5] = 1 μg/ml cam, after 7 hours incubation
[6] = 1 μg/ml cam, after overnight incubation
[7] = 2 μg/ml cam, after 7 hours incubation
[8] = 2 μg/ml cam, after overnight incubation
[9] = 3 μg/ml cam, after 7 hours incubation
[10] = 3 μg/ml cam, after overnight incubation
[11] = 6 μg/ml cam, after 7 hours incubation
[12] = 6 μg/ml cam, after overnight incubation
[13] = 9 μg/ml cam, after 7 hours incubation
[14] = 9 μg/ml cam, after overnight incubation
[15] = 12 μg/ml cam, after 7 hours incubation
[16] = 12 μg/ml cam, after overnight incubation

O=C(N[C@H](CO)[C@H](O)c1ccc([N+](=O)[O-])cc1)C(Cl)Cl [cam, chloramphenicol]
Growth when reisolated onto plates (control strain): some growth | Growth when reisolated onto plates (SJ8072): absolutely no growth | Growth scored by visual inspection of turbidity (ATCC14580; [5]): ++ | Growth scored by visual inspection of turbidity (ATCC14580; [6]): ++ | Growth scored by visual inspection of turbidity (ATCC14580; [7]): + | Growth scored by visual inspection of turbidity (ATCC14580; [8]): ++ | Growth scored by visual inspection of turbidity (ATCC14580; [9]): + | Growth scored by visual inspection of turbidity (ATCC14580; [10]): ++ | Growth scored by visual inspection of turbidity (ATCC14580; [11]): − | Growth scored by visual inspection of turbidity (ATCC14580; [12]): ++ | Growth scored by visual inspection of turbidity (ATCC14580; [13]): − | Growth scored by visual inspection of turbidity (ATCC14580; [14]): ++ | Growth scored by visual inspection of turbidity (ATCC14580; [15]): − | Growth scored by visual inspection of turbidity (ATCC14580; [16]): + | Growth scored by visual inspection of turbidity [1, 5]: + | Growth scored by visual inspection of turbidity [1, 6]: ++ | Growth scored by visual inspection of turbidity [1, 7]: − | Growth scored by visual inspection of turbidity [1, 8]: ++ | Growth scored by visual inspection of turbidity [1, 9]: − | Growth scored by visual inspection of turbidity [1, 10]: ++ | Growth scored by visual inspection of turbidity [1, 11]: − | Growth scored by visual inspection of turbidity [1, 12]: + | Growth scored by visual inspection of turbidity [1, 13]: − | Growth scored by visual inspection of turbidity [1, 14]: + | Growth scored by visual inspection of turbidity [1, 15]: − | Growth scored by visual inspection of turbidity [1, 16]: + | Growth scored by visual inspection of turbidity [2, 5]: + | Growth scored by visual inspection of turbidity [2, 6]: ++ | Growth scored by visual inspection of turbidity [2, 7]: − | Growth scored by visual inspection of turbidity [2, 8]: ++ | Growth scored by visual inspection of turbidity [2, 9]: − | Growth scored by visual inspection of turbidity [2, 10]: ++ | Growth scored by visual inspection of turbidity [2, 11]: − | Growth scored by visual inspection of turbidity [2, 12]: + | Growth scored by visual inspection of turbidity [2, 13]: − | Growth scored by visual inspection of turbidity [2, 14]: + | Growth scored by visual inspection of turbidity [2, 15]: − | Growth scored by visual inspection of turbidity [2, 16]: + | Growth scored by visual inspection of turbidity (PP1897-3; [5]): ++ | Growth scored by visual inspection of turbidity (PP1897-3; [6]): ++ | Growth scored by visual inspection of turbidity (PP1897-3; [7]): ++ | Growth scored by visual inspection of turbidity (PP1897-3; [8]): ++ | Growth scored by visual inspection of turbidity (PP1897-3; [9]): + | Growth scored by visual inspection of turbidity (PP1897-3; [10]): ++ | Growth scored by visual inspection of turbidity (PP1897-3; [11]): − | Growth scored by visual inspection of turbidity (PP1897-3; [12]): ++ | Growth scored by visual inspection of turbidity (PP1897-3; [13]): − | Growth scored by visual inspection of turbidity (PP1897-3; [14]): ++ | Growth scored by visual inspection of turbidity (PP1897-3; [15]): − | Growth scored by visual inspection of turbidity (PP1897-3; [16]): + | Transconjugant colonies using chloramphenicol selection [3]: Distinct transconjugant colonies | Transconjugant colonies using chloramphenicol selection [4]: No distinct transconjugant colonies | Growth when reisolated onto plates (SJ8071): absolutely no growth
